Measurements reported in the Kinase Knowledgebase extract (Sharma et al. 2016).
“And” between values parts separate entries of the source, which are not always exact repeats. Identical values can stand only once. Values belong to the compound of their own block, whether it stands above or below them.

Assays:
MAP2K1;MAPK14 (human) [1] = target: MAP2K1;MAPK14 (human) (UniProt Q16539); test: Inhibition of LnCAP Cell Proliferation by MTT Assay
MAP2K1;MAPK14 (human) [2] = target: MAP2K1;MAPK14 (human) (UniProt Q16539); test: Inhibition of BXPC3 Cell Proliferation by MTT Assay; settings: bxpc-3 pancreatic
MAP2K1;MAPK14 (mice) = test: Inhibition of LOVO Cell Proliferation by Xenograft Model; settings: dose or concentration not given here
EGFR (human) [3] = target: EGFR (human) (UniProt P00533); settings: a431
Sequence of EGFR (human) (P00533 whole entry, looked up): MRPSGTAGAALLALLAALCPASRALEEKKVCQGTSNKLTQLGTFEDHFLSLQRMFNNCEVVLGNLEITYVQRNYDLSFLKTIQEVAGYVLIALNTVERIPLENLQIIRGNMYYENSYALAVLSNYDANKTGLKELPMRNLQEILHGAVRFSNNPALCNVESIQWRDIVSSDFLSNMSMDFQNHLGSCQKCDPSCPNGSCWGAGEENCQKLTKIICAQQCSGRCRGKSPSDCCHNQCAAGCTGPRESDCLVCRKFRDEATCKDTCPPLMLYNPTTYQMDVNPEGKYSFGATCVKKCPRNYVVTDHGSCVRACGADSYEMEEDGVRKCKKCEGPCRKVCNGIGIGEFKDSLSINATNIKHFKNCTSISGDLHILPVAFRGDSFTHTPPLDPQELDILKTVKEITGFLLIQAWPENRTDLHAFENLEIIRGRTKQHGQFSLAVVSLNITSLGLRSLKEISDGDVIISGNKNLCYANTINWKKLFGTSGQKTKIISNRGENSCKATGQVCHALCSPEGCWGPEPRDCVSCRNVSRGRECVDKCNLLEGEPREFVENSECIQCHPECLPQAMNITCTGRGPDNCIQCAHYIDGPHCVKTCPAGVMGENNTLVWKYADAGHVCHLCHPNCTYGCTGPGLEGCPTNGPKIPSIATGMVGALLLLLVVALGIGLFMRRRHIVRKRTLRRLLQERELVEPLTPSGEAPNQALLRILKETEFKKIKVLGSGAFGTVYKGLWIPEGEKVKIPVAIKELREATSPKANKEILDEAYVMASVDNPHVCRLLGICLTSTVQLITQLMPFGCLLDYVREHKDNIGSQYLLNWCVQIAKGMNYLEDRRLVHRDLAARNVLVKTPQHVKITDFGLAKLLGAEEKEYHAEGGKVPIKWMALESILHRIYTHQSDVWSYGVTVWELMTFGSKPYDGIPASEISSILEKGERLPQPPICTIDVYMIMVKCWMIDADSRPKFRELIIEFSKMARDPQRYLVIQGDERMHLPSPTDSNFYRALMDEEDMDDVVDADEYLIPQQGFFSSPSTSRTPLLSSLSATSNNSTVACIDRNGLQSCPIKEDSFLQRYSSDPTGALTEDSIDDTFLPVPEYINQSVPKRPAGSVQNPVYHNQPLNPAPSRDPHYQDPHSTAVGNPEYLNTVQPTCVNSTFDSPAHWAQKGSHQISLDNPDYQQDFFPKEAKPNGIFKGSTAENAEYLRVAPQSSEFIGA

EGFR [4] = target: EGFR (UniProt P00533)
Sequence of EGFR (P00533 whole entry, looked up): as above

EGFR (human) [5] = target: EGFR (human) (UniProt P00533); settings: f/l herc cells
EGFR (human) [6] = target: EGFR (human) (UniProt P00533); settings: a431; remark: listed apart in the source
EGFR (human) [7] = target: EGFR (human) (UniProt P00533); settings: a431; remark: listed apart in the source
EGFR (human) [8] = target: EGFR (human) (UniProt P00533)
EGFR (mouse) [9] = target: EGFR (mouse) (UniProt P00533); settings: swiss 3t3 fibroblast
EGFR [10] = target: EGFR (UniProt P00533); remark: listed apart in the source
CDK2;CDK1 = CDK2;CDK1 (UniProt P24941); test: Cell-Based Assay
EGFR [11] = target: EGFR (UniProt P00533); remark: listed apart in the source
EGFR (human) [12] = target: EGFR (human) (UniProt P00533); settings: A431
CDK2 [13] = target: CDK2 (UniProt P24941); test: Enzyme Assay
CDK2 [14] = target: CDK2 (UniProt P24941); test: Enzyme Assay; remark: listed apart in the source
EGFR (human) [15] = target: EGFR (human) (UniProt P00533); settings: a431; remark: listed apart in the source
EGFR [16] = target: EGFR (UniProt P00533); remark: listed apart in the source
EGFR (murine) [17] = target: EGFR (murine) (UniProt P00533); settings: nih3t3
Sequence of EGFR (murine) (P00533 whole entry, looked up): as above

MAPK14 (human) = MAPK14 (human) (UniProt Q16539); test: In vitro Inhibition of LPS-Induced TNF-alpha Release in THP-1 Cells; settings: thp.1 monocytic
Sequence of MAPK14 (human) (Q16539 whole entry, looked up): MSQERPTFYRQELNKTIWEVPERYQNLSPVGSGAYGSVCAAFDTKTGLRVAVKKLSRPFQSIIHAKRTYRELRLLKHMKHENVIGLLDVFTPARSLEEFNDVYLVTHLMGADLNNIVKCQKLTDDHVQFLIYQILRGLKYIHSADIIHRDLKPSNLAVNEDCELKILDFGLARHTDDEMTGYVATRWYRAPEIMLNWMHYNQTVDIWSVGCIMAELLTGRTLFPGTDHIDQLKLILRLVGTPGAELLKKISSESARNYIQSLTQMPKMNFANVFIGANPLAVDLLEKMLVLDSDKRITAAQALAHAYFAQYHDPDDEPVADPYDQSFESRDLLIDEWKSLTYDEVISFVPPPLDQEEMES

MAPK14 [18] = target: MAPK14 (UniProt Q16539); test: In Vitro p38 Inhibition
Sequence of MAPK14 (Q16539 whole entry, looked up): as above

EGFR (mouse) [19] = target: EGFR (mouse) (UniProt P00533); settings: nih3t3/c7
EGFR (human) [20] = target: EGFR (human) (UniProt P00533); settings: a431; remark: listed apart in the source
EGFR [21] = target: EGFR (UniProt P00533); remark: listed apart in the source
MAPK14 [22] = target: MAPK14 (UniProt Q16539); test: Inhibition of MAPK Activity
EGFR (human) [23] = target: EGFR (human) (UniProt P00533); settings: a431, concentration not given here
MAP2K1;MAPK14 (human) [24] = target: MAP2K1;MAPK14 (human) (UniProt Q16539); test: Inhibition of CaCO Cell Proliferation by MTT Assay; settings: caco-2
MAP2K1;MAPK14 (human) [25] = target: MAP2K1;MAPK14 (human) (UniProt Q16539); test: Inhibition of LOVO Cell Proliferation by MTT Assay
EGFR [26] = target: EGFR (UniProt P00533); remark: listed apart in the source
EGFR [27] = target: EGFR (UniProt P00533); remark: listed apart in the source
EGFR (murine) [28] = target: EGFR (murine) (UniProt P00533); settings: f/l-herc
EGFR [29] = target: EGFR (UniProt P00533); remark: listed apart in the source
EGFR [30] = target: EGFR (UniProt P00533); remark: listed apart in the source
EGFR (murine) [31] = target: EGFR (murine) (UniProt P00533); settings: nih3t3; remark: listed apart in the source

Sequence of MAP2K1;MAPK14 (human) (Q16539 whole entry, looked up): as above

Structure (SMILES): CCN1CCN(CCCOc2cc3ncc(C#N)c(Nc4ccc(Sc5nccn5C)c(Cl)c4)c3cc2OC)CC1
IC50 (MAP2K1;MAPK14 (human) [1]): 0.045 µM
IC50 (MAP2K1;MAPK14 (human) [2]): 0.007 µM
T/C (MAP2K1;MAPK14 (mice)): 44%

Structure (SMILES): COCC1COc2cc3ncnc(Nc4cccc(Br)c4)c3cc2O1 (configuration not stated)
GI50 (EGFR (human) [3]): 0.6 µM and 0.24 µM

Structure (SMILES): Cc1cc(C)c(N(C)C)c(C)c1Cc1nc(-c2ccncc2)c(-c2ccc(Cl)cc2)[nH]1
IC50 (EGFR [4]): 0.05 µM

Structure (SMILES): CCC(=O)CN(C)C/C=C/C(=O)Nc1cc2c(N[C@H](C)c3ccccc3)ncnc2cc1OC
IC50 (EGFR (human) [5]): 0.009 µM

Structure (SMILES): COc1cc2ncnc(N[C@H](CO)c3ccccc3)c2cc1OC
IC50 (EGFR (human) [6]): > 1.56 µM
IC50 (EGFR (human) [7]): 0.8 µM

Structure (SMILES): Cc1ccc2[nH]c(SSc3[nH]c4ccc(C)cc4c3CCC(=O)O)c(CCC(=O)O)c2c1
IC50 (EGFR (mouse) [9]): > 50 µM

Structure (SMILES): Cn1cnc2c(OCC3CCCCC3)nc(N)nc21
GI50 (CDK2;CDK1): > 100 µM

Structure (SMILES): Cc1cccc(Nc2cc(Nc3cccc(N(C)C)c3OCCO)ncn2)c1
IC50 (EGFR [11]): 0.001 µM

Structure (SMILES): c1ccc(COc2ccc(Nc3ncnc4ccc(-c5ccc(CNCc6cccnc6)o5)cc34)cc2)cc1
IC50 (EGFR (human) [12]): 0.2 µM

Structure (SMILES): N#C/C(=C\c1ccc(O)c(O)c1)C(N)=O
Ki (EGFR (human) [15]): 3.5 µM
IC50 (EGFR [16]): > 1000 µM

Structure (SMILES): COc1cc2ncnc(N[C@H](COC(C)=O)c3ccccc3)c2cc1OC
IC50 (EGFR (human) [6]): 5.3 µM
IC50 (EGFR (human) [7]): 1.31 µM

Structure (SMILES): O=C(CNS(=O)(=O)c1ccc(CNC(=O)c2ccc(Cl)cc2)s1)NCCNc1ccc(C(F)(F)F)cn1
IC50 (MAPK14 [18]): > 30 µM

Structure (SMILES): Cn1cnc2c(NCc3ccccc3)nc(NCCO)nc21
IC50 (MAPK14 [22]): 30 µM

Structure (SMILES): C=CC(=O)Nc1ccc2ncnc(Nc3ccc(OCc4ccccc4)cc3)c2c1
activity (EGFR (human) [23]): 0%

Structure (SMILES): COc1cc2c(Nc3ccc(Sc4nccn4C)c(Cl)c3)c(C#N)cnc2cc1OCCC[N+]1([O-])CCSCC1
IC50 (MAP2K1;MAPK14 (human) [24]): > 1 µM
IC50 (MAP2K1;MAPK14 (human) [25]): 0.036 µM

Structure (SMILES): O=C(c1c[nH]c2ccccc12)N1CCC(Cc2ccccc2)CC1
IC50 (EGFR [26]): > 500 µM

Structure (SMILES): C=CC(=O)Nc1ccc2ncnc(Nc3ccc(Oc4ccccc4)cc3)c2c1
activity (EGFR (human) [23]): 0%

Structure (SMILES): CC(C)N(CCC(=O)c1ccc2ccccc2c1)Cc1ccccc1
IC50 (EGFR [27]): 3.13 µM

Structure (SMILES): O=CN/C=C/c1cc(O)ccc1O
IC50 (EGFR [16]): 5 µM

Structure (SMILES): N#CC(C#N)=Cc1cc(O)c(O)c(O)c1
Ki (EGFR (human) [15]): 1 µM
IC50 (EGFR [29]): 50 µM

Second part, the compound after the results:

IC50 (EGFR (human) [8]): 0.308 µM
Structure (SMILES): Cn1c(=O)c(-c2c(Cl)cccc2Cl)cc2cnc(Nc3cccc(Br)c3)nc21

IC50 (EGFR (human) [5]): 0.017 µM
Structure (SMILES): CCOC(=O)CN1CCN(C/C=C/C(=O)Nc2cc3c(Nc4ccc(F)c(Cl)c4)ncnc3cc2OCCC2CC2)CC1

IC50 (EGFR [10]): > 20 µM
Structure (SMILES): Cc1cc(C(=O)N2CCOCC2)[nH]c1/C=C1/C(=O)Nc2ncnc(N3CCCCC3)c21

IC50 (CDK2 [13]): > 100 µM
IC50 (CDK2 [14]): > 100 µM
Structure (SMILES): Cn1c2ccccc2c2cc[n+]3c(c21)C(=O)c1ccccc1-3

IC50 (EGFR (murine) [17]): > 100 µM
Structure (SMILES): NS(=O)(=O)c1ccc2c(c1)/C(=C/C1=CC3=C(CCCC3)C1)C(=O)N2

IC50 (MAPK14 (human)): 0.53 µM
Structure (SMILES): O=C(Nc1ccc2[nH]cc(CCc3ccncc3)c2c1)c1cc(F)cc(N2CCOCC2)c1

IC50 (EGFR (mouse) [19]): > 100 µM
Structure (SMILES): Cc1cnc2cc3nc(-c4ccccc4)[nH]c3c(C)c2n1

IC50 (EGFR (human) [20]): 1.2 µM
IC50 (EGFR [21]): 0.15 µM
Structure (SMILES): CO[C@@H](C#CC(=O)Nc1ccc2ncc(C#N)c(Nc3cccc(Br)c3)c2c1)CN1CCCC1

IC50 (EGFR [21]): 0.81 µM
Structure (SMILES): C=CC(=O)Nc1cc2c(Nc3cccc(Br)c3)c(C#N)cnc2cc1OC

IC50 (EGFR (human) [8]): 0.25 µM
Structure (SMILES): CCn1c(=O)c(-c2c(Cl)cccc2Cl)cc2cnc(Nc3ccncc3)nc21

IC50 (EGFR (murine) [28]): > 10 µM
Structure (SMILES): O[C@H]1CC[C@H](Nc2ncc3ncnc(Nc4ccc5c(c4)-c4ccccc4C5)c3n2)CC1

IC50 (EGFR [30]): 0.078 µM
Structure (SMILES): Cn1c(=O)c(-c2c(Cl)cccc2Cl)cc2cnc(Nc3ccccc3)nc21

IC50 (EGFR (murine) [31]): > 100 µM
Structure (SMILES): CC(C)S(=O)(=O)c1csc(NC(=O)Nc2ccc(C(C)(C)C)cc2)c1Cl
